Series [1] relates to Gli-luciferase activity in TMHh12 cells. The series is described as follows: Reporter gene assay (RGA) in TMHh12 cells, antagonism of Gli-luciferase activity in presence of Smo agonist. The series is classed as cell-based. The procedure:
Activity of the compounds was evaluated using a reporter gene assay (RGA) in TMHh12 cells.

Series [2] has as its target mouse Smoothened receptor (Mus musculus, UniProt P56726). The series is described as follows: Smo binding assay, displacement of radio-labeled smoothened agonist, filter binding format (mouse). The conditions noted are these: read-out: Mouse Smo bdg., IC50. From the text:
(§1) A Smo binding assay was developed using radio-labeled smoothened agonist for compound competition. Table 10 lists the IC50 for displacement of a small molecule agonist of Smoothened determined in a filter binding format for the mouse and human Smoothened receptor.

Series [3] deals with human Smoothened receptor (Homo sapiens, UniProt Q99835). The series is described as follows: Smo binding assay, displacement of radio-labeled smoothened agonist, filter binding format (human). To be noted: read-out: Human Smo bdg., IC50.
Excerpt: as §1

Series [4] is described as follows: equilibrium solubility at pH 6.8. The series is classed as physicochemical. The conditions noted are these: aqueous buffer, thermodynamic from solid, examples of the present invention.
Where [5] appears, read: TMHh12, read-out: RGA (1 nM Smo agonist) IC50, 1 nM Smo agonist, examples of the present invention, exact values.
Setting [6] is: TMHh12, read-out: RGA (25 nM Smo agonist) IC50, 25 nM Smo agonist, examples of the present invention, exact values.
[7] abbreviates: examples of the present invention, exact values.
[8] abbreviates: read-out: RGA (1 nM Smo agonist) IC50, 1 nM Smo agonist, Table 10, values as ranges.
The mark [9] stands for this setting: read-out: RGA (25 nM Smo agonist) IC50, 25 nM Smo agonist, Table 10, values as ranges.

In brackets after ≈: the same amount, converted by molar mass. Where two headings read alike, the source gives them in different places.

Chain of mouse Smoothened receptor (P56726 33-793): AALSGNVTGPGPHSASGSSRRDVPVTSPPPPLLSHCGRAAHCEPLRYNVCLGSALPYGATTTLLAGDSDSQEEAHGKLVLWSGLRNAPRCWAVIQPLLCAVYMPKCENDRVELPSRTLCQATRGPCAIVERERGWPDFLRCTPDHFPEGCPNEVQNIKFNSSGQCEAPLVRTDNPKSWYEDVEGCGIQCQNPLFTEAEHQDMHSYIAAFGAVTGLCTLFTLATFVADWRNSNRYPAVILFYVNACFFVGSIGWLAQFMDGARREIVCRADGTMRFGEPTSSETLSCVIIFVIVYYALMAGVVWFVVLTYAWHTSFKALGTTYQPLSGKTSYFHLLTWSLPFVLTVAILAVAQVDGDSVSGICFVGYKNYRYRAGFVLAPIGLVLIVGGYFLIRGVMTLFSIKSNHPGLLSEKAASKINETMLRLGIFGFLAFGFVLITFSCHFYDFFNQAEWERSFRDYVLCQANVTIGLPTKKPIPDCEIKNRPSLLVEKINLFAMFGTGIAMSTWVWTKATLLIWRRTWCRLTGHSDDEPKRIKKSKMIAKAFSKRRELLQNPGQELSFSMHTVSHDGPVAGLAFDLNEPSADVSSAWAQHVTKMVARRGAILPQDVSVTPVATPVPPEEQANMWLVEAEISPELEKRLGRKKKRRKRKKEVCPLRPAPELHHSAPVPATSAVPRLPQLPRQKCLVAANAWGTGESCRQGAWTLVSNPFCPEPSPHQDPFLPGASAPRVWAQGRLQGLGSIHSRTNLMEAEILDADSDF
Chain of human Smoothened receptor (Q99835 28-787): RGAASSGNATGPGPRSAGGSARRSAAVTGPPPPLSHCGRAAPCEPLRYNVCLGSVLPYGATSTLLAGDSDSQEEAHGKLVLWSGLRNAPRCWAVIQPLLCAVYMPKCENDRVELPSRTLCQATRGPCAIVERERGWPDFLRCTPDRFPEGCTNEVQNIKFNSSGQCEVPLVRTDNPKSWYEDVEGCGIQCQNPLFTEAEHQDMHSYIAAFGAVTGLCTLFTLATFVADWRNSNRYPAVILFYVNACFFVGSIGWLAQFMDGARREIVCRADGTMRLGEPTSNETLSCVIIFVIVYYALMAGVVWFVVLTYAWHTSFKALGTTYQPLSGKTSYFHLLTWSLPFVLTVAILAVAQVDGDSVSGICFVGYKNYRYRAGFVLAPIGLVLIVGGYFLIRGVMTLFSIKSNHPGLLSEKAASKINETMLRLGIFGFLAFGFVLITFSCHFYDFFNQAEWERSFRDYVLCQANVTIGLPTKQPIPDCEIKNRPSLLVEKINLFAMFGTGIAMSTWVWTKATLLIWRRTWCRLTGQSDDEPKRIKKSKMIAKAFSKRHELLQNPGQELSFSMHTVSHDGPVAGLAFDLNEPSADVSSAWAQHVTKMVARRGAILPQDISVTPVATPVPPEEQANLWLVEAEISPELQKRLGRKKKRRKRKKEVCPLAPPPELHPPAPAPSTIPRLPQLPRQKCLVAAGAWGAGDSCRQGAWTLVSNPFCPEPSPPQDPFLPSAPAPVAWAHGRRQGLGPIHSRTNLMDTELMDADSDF

The IC50 is the concentration at which inhibition is half-maximal. Take `CC(C)(O)c1ccc(N2CCN(c3nnc(Cc4ccc(F)cc4)c4c3CCCC4)CC2)nc1` [Example 104]: the IC50 in series [1] (setting [5]) was 5 nM; in series [1] (setting [6]), 70 nM; in series [2] (setting [7]), 9 nM; in series [3] (setting [7]) it was 14 nM.
The matching figures for `Cc1c(Cc2ccc(F)cc2)nnc(N2CCN(c3ccc(C(C)(C)O)cn3)CC2)c1C` [Example 106]: 5 nM, 76 nM, 5 nM and 7 nM.
Regarding `CC[C@@H]1CN(c2nnc(Cc3ccccc3)c(C)c2C)CCN1c1cnc(C(C)(C)O)cn1` [Example 91], the IC50 in series [1] (setting [5]) was 5 nM; in series [1] (setting [6]) it was 57 nM; in series [2] (setting [7]), 8 nM; in series [3] (setting [7]), 8 nM.
With `CCC(O)(CC)c1cnc(N2CCN(c3nnc(Cc4ccccc4)c(C)c3C)C[C@H]2C)cn1` [Example 111], the IC50 was found to be 1 nM in series [1] (setting [5]), 18 nM in series [1] (setting [6]), 2 nM in series [2] (setting [7]) and 1 nM in series [3] (setting [7]).
`Cc1c(Cc2ccccc2)nnc(N2CCC(C)(c3nc4cnccc4[nH]3)CC2)c1C` [Example 59, 2-[1-(6-Benzyl-4,5-dimethyl-pyridazin-3-yl)-4-methyl-piperidin-4-yl]-1H-imidazo[4,5-c]pyridine]: the IC50 in series [1] (setting [8]) is 1 to 10 nM; in series [1] (setting [9]) it was 1 to 25 nM; in series [2] (Table 10, values as ranges), 1 to 25 nM; in series [3] (Table 10, values as ranges), 1 to 10 nM.
Turning to `CC(=O)c1cnc(N2CCN(c3nnc(Cc4ccccc4)c4c3CCC4)C[C@H]2C)cc1C(F)(F)F` [Example 108], the IC50 in series [1] (setting [5]) stood at 4 nM; in series [1] (setting [6]) it was 33 nM.
Consider `Cc1c(Cc2ccccc2)nnc(N2CCN(c3ncc(C(C)(C)O)c(C(F)(F)F)n3)[C@H](C)C2)c1C` [Example 96], for which the IC50 in series [1] (setting [5]) is 6 nM; in series [1] (setting [6]), 62 nM; in series [2] (setting [7]), 4 nM; in series [3] (setting [7]), 3 nM.
Take `C[C@@H]1CN(c2nnc(Cc3ccccc3)c3c2CCC3)CCN1c1cc(C(F)(F)F)c(C(C)(C)O)cn1` [Example 107]: the IC50 turned out to be 2 nM in series [1] (setting [5]), 23 nM in series [1] (setting [6]), 3 nM in series [2] (setting [7]) and 3 nM in series [3] (setting [7]).
In general, thermodynamic solubility refers to the concentration in solution at equilibrium with solid. As to `Cc1c(Cc2ccccn2)nnc(N2CCN(c3cnc(C(C)(C)O)cn3)[C@H](C)C2)c1C` [Example 54, 2-[(R)-4-(4,5-Dimethyl-6-pyridin-2-ylmethyl-pyridazin-3-yl)-2-methyl-3,4,5,6-tetrahydro-2H-[1,2′]bipyrazinyl-5′-yl]-propan-2-ol], the IC50 in series [1] (setting [5]) is 7 nM; in series [1] (setting [6]), 83 nM; in series [2] (setting [7]), 30 nM; in series [3] (setting [7]), 22 nM. In series [4], this compound displayed a thermodynamic solubility of 619 µM (≈ 268 µg/mL).
Consider `Cc1c(Oc2ccccc2)nnc(N2CCN(c3cnc(C(C)(C)O)cn3)[C@H](C)C2)c1C` [Example 2, 2-[(R)-4-(4,5-Dimethyl-6-phenoxy-pyridazin-3-yl)-2-methyl-3,4,5,6-tetra-hydro-2H-[1,2′]bipyrazinyl-5′-yl]-propan-2-ol], for which the IC50 worked out at 2 nM in series [1] (setting [5]), 23 nM in series [1] (setting [6]), 8 nM in series [2] (setting [7]) and 4 nM in series [3] (setting [7]).
`COC(=O)c1cnc(N2CCN(c3nnc(-c4ccc(F)c(Cl)c4)c(C)c3C)CC2)nc1C(F)(F)F` [Example 20]: the IC50 in series [1] (setting [8]) was less than 0.1 nM; in series [1] (setting [9]) it was 0.1 to 1 nM; in series [2] (Table 10, values as ranges), less than 0.1 nM; in series [3] (Table 10, values as ranges) it was less than 0.1 nM.
`CC(=O)c1cnc(N2CCN(c3nnc(Cc4ccccc4)c(C)c3C)C[C@H]2C)cn1` [Example 95, 1-[(R)-4-(6-Benzyl-4,5-dimethyl-pyridazin-3-yl)-2-methyl-3,4,5,6-tetrahydro-2H-[1,2]bipyrazinyl-5′-yl]-ethanone]: the IC50 in series [1] (setting [5]) was 8 nM; in series [1] (setting [6]), 110 nM; in series [2] (setting [7]), 9 nM; in series [3] (setting [7]) it was 8 nM.
On to `Cc1c(Cc2ccccc2)nnc(N2CCN(c3cnc(C(C)(O)CO)cn3)[C@H](C)C2)c1C` (stereo partly drawn) [Example 144, 2-[(R)-4-(6-Benzyl-4,5-dimethyl-pyridazin-3-yl)-2-methyl-3,4,5,6-tetrahydro-2H-[1,2]bipyrazinyl-5′-yl]-propane-1,2-diol], for which the IC50 in series [1] (setting [5]) was 5 nM; in series [1] (setting [6]) it was 83 nM; in series [2] (setting [7]), 19 nM; in series [3] (setting [7]) it was 24 nM. The compound further showed a thermodynamic solubility in series [4] of 270 µM (≈ 121 µg/mL).
With `Cc1c(Cc2ccncc2)nnc(N2CCN(c3cnc(C(C)(C)O)cn3)[C@H](C)C2)c1C` [Example 50, 2-[(R)-4-(4,5-Dimethyl-6-pyridin-4-ylmethyl-pyridazin-3-yl)-2-methyl-3,4,5,6-tetrahydro-2H-[1,2′]bipyrazinyl-5′-yl]-propan-2-ol], the IC50 in series [1] (setting [5]) was 6 nM; in series [1] (setting [6]), 114 nM; in series [2] (setting [7]), 32 nM; in series [3] (setting [7]), 29 nM. The solubility (thermodynamic) in series [4] was more than 1000 µM.
For `Cc1c(C(O)c2ccccc2)nnc(N2CCN(c3cnc(C(C)(C)O)cn3)[C@H](C)C2)c1C` (stereo partly shown) [Example 48], the IC50 is 2 nM in series [1] (setting [5]), 25 nM in series [1] (setting [6]), 8 nM in series [2] (setting [7]) and 5 nM in series [3] (setting [7]). This compound also yielded a thermodynamic solubility in series [4] of 425 µM (≈ 191 µg/mL).
`CC(C)(O)c1ccc(N2CCN(c3nnc(Cc4ccc(F)cc4)c4c3CCC4)CC2)nc1` [Example 105]: the IC50 in series [1] (setting [5]) worked out at 3 nM; in series [1] (setting [6]), 35 nM; in series [2] (setting [7]), 6 nM; in series [3] (setting [7]), 7 nM.
As to `Cc1c(Cc2ccc(F)cc2)nnc(N2CCN(c3ncc(C(C)(C)O)c(C(F)(F)F)n3)[C@H](C)C2)c1C` [Example 97], the IC50 in series [1] (setting [5]) stood at 3 nM; in series [1] (setting [6]), 35 nM; in series [2] (setting [7]), 2 nM; in series [3] (setting [7]), 2 nM.
In the case of `C[C@@H]1CN(c2nnc(Cc3ccc(F)cc3)c3c2CCC3)CCN1c1cc(C(F)(F)F)c(C(C)(C)O)cn1` [Example 109], the IC50 was 3 nM in series [1] (setting [5]), 38 nM in series [1] (setting [6]), 2 nM in series [2] (setting [7]) and 2 nM in series [3] (setting [7]).
Regarding `Cc1c(Cc2ccccc2)nnc(N2CCN(c3cnc(C(C)(C)O)cn3)[C@H](C)C2)c1C` [Example 88, 2-[(R)-4-(6-Benzyl-4,5-dimethyl-pyridazin-3-yl)-2-methyl-3,4,5,6-tetrahydro-2H-[1,2′]bipyrazinyl-5′-yl]-propan-2-ol], the IC50 in series [1] (setting [5]) was found to be 1 nM; in series [1] (setting [6]), 14 nM; in series [2] (setting [7]), 3 nM; in series [3] (setting [7]), 9 nM. In series [4], this compound came in with a thermodynamic solubility of 44 µM (≈ 19 µg/mL).
With `C[C@@H]1CN(c2nnc(Cc3ccc(F)cc3)c3c2CCC3)CCN1c1ncc(C(C)(C)O)c(C(F)(F)F)n1` [Example 99], the IC50 in series [1] (setting [5]) was 5 nM; in series [1] (setting [6]), 72 nM; in series [2] (setting [7]), 3 nM; in series [3] (setting [7]), 2 nM.
As for `C[C@@H]1CN(c2nnc(Cc3ccccc3)c3c2CCC3)CCN1c1cnc(C(C)(C)O)cn1` [Example 93], the IC50 in series [1] (setting [5]) came out at 1 nM; in series [1] (setting [6]), 14 nM; in series [2] (setting [7]), 3 nM; in series [3] (setting [7]) it was 1 nM. Further, in series [4], the solubility (thermodynamic) is 20 µM (≈ 8.89 µg/mL).
As for “4,5-Dimethyl-3-(1-methyl-1H-tetrazol-5-ylmethyl)-6-[4-(5-trifluoromethyl-pyridin-2-yl)-piperazin-1-yl]-pyridazine & 4,5-Dimethyl-3-(2H-methyl-2H-tetrazol-5-ylmethyl)-6-[4-(5-trifluoromethyl-pyridin-2-yl)-piperazin-1-yl]-pyridazine [160/161]”, the IC50 in series [1] (setting [8]) lay within 1 to 10 nM; in series [1] (setting [9]), 1 to 25 nM; in series [2] (Table 10, values as ranges), 1 to 10 nM; in series [3] (Table 10, values as ranges), 1 to 10 nM.
With `C[C@@H]1CN(c2nnc(Cc3ccccc3)c3c2CCC3)CCN1c1ncc(C(C)(C)O)c(C(F)(F)F)n1` [Example 98], the IC50 was determined as 11 nM in series [1] (setting [5]), 69 nM in series [1] (setting [6]), 6 nM in series [2] (setting [7]) and 6 nM in series [3] (setting [7]).
In the case of `Cc1c(Cc2ccccc2)nnc(N2CCN(c3cnc(C(C)(C)O)cn3)[C@@H](C)C2)c1C` [Example 90], the IC50 in series [1] (setting [5]) is 1 nM; in series [1] (setting [6]) it was 34 nM; in series [2] (setting [7]), 7 nM; in series [3] (setting [7]) it was 6 nM. Moreover, the solubility (thermodynamic) in series [4] turned out to be 18 µM (≈ 7.79 µg/mL).
`Cc1c(Cc2ccccc2)nnc(N2CCN(c3cnc(C(C)(C)O)cn3)CC2)c1C` [Example 89]: the IC50 in series [1] (setting [5]) came out at 2 nM; in series [1] (setting [6]), 60 nM; in series [2] (setting [7]) it was 15 nM; in series [3] (setting [7]), 11 nM. The thermodynamic solubility in series [4] was found to be 11 µM (≈ 4.6 µg/mL).

The record behind these values is patent US8481542B2, “Pyridazinyl derivatives as smo inhibitors” (Novartis AG, priority 2008, dated 2013).
